From US20040121936A1, “Composition” (Colgate-Palmolive Company, priority 2001, published 2004)
Entries after “also recorded” stand apart in the source; their conditions may differ.

Tests used:
[1] = system: bacteria; assay: antibacterial efficacy by cup scrub method on humans against the composition without TCC; format: in vivo
Protocol: Using the formulation of Example 1 or Example 2 but with varying amounts of TCC, the amide wherein R is cocoyl, p is 2 and n is 1, and the alcohol wherein R′ is lauryl and q is 7, antibacterial efficacy is measured using a cup scrub method on humans against the composition without TCC.

[2] = stability of TCC in body cleansing composition (precipitate/crystals on storage); format: physicochemical; conditions: for Comments (precipitate/crystals of TCC): 0.15% TCC in body cleansing composition
From the text: Further work on the usefulness of this invention may be seen in the stability data of Example 5. TCC at 0.15% was incorporated in a body cleansing composition of (which may also include the types described above). using Promidium CO alone and in combination with Laureth-7.

With `O=C(Nc1ccc(Cl)cc1)Nc1ccc(Cl)c(Cl)c1` [TCC, 3,4,4′-trichlorocarbanilide] the “log reduction of bacteria” value ([1]; TCC in the compositions, measured against a composition without TCC) was “greater than 1 log”, the “Comments (precipitate/crystals of TCC)” value ([2]; Promidium CO 0.675%, Laureth-7 0.675%) was “no precipitate or crystals were observed; also recorded: No Precipitate or crystals even” and the “Comments (precipitate/crystals of TCC)” value ([2]; Promidium CO 3.0%, Laureth-7 0.0%) was “precipitate/crystals of TCC were observed at the bottom of the container after 4-5 weeks; also recorded: Precipitate/Crystals in 4-5 Weeks”. For the same compound, the “time for which no precipitate or crystals were observed” value ([2]; body cleansing composition with combination of Promidium CO and Laureth-7) was no less than 13 weeks.

For “PPG-2 hydroxyethyl cocoamide [Promidium CO]”, the “effect of presence on antibacterial efficacy” value ([1]; presence of Promidium Co and/or laureth-7 in the composition) was “does not significantly affect antibacterial efficacy”.
